In patent US20230263822A1, “MODULATION OF FACTOR 11 EXPRESSION” (Ionis Pharmaceuticals, Inc., priority 2008, published 2023):

Key:
[1] = tested on: Factor 11 protein; assay: Factor 11 protein in monkey plasma by sandwich ELISA (Example 45); type: in vivo, cynomolgus monkeys; settings: escalating dose regimen, plasma ELISA
Procedure: (§1) Groups, each consisting of two male and three female monkeys, were injected subcutaneously with ISIS 416838, ISIS 416850, ISIS 416858, ISIS 416864, or ISIS 417002 in escalating doses. Antisense oligonucleotide was administered to the monkeys at 5 mg/kg three times per a week for week 1; 5 mg/kg twice per week for weeks 2 and 3; 10 mg/kg three times per week for week 4; 10 mg/kg twice per week for weeks 5 and 6; 25 mg/kg three times per week for week 7; and 25 mg/kg twice per week for weeks 8, 9, 10, 11, and 12. One control group, consisting of two male and three female monkeys, was injected subcutaneously with PBS according to the same dosing regimen. An additional experimental group, consisting of two male and three female monkeys, was injected subcutaneously with ISIS 416850 in a chronic, lower dose regimen. Antisense oligonucleotide was administered to the monkeys at 5 mg/kg three times per week for week 1; 5 mg/kg twice per week for week 2 and 3; 10 mg/kg three times per week for week 4; and 10 mg/kg twice per week for weeks 5 to 12. Body weights were measured weekly. Blood samples were collected 14 days and 5 days before the start of treatment and subsequently once per week for Factor 11 protein activity analysis in plasma, fibrinogen measurement, PT and aPTT measurements, bleeding times, and measurement of various hematologic factors. On day 85, the monkeys were euthanized by exsanguination while under deep anesthesia, and organs harvested for further analysis.
Plasma samples from all monkey groups taken on different days were analyzed by a sandwich-style ELISA assay (Affinity Biologicals Inc.) using an affinity-purified polyclonal anti-Factor 11 antibody as the capture antibody and a peroxidase-conjugated polyclonal anti-Factor 11 antibody as the detecting antibody. Monkey plasma was diluted 1:50 for the assay. Peroxidase activity was expressed by incubation with the substrate o-phenylenediamine. The color produced was quantified using a microplate reader at 490 nm and was considered to be proportional to the concentration of Factor 11 in the samples.
The results are presented in Table 115, expressed as percentage reduction relative to that of the PBS control.

[2] = tested on: fibrinogen; assay: Fibrinogen assay (Example 45); type: in vivo, cynomolgus monkeys; settings: plasma, escalating dose regimen
Procedure: as §1
Nine parts of fresh monkey plasma was collected into one part of trisodium citrate. The samples were evaluated of fibrinogen content using an ACL 9000 coagulation instrument (Instrumentation Laboratory, Italy). The ISIS oligonucleotide, ISIS 416850, given with the chronic dose regimen is distinguished from the other oligonucleotides with an asterisk (*).

[3] = mouse, in vivo, sc, 50 mg/kg
Procedure: A control group of five mice was injected subcutaneously with PBS for 2 weeks. All experimental groups (i.e. ASO treated mice at 2, 4, 6 weeks) were compared to the control group (i.e. PBS, 2 weeks).
Blood obtained from all mice groups were sent to Antech Diagnostics for hematocrit (HCT), mean corpuscular volume (MCV), mean corpuscular hemoglobin (MCH), and mean corpuscular hemoglobin concentration (MCHC) measurements and analyses, as well as measurements of the various blood cells, such as WBC (neutrophils, lymphocytes, and monocytes), RBC, and platelets, and total hemoglobin content.

[4] = Tolerability in Sprague-Dawley rats: liver function (Example 35); settings: plasma, 50 mg/kg s.c. twice per week for 6 weeks

Substance: ISIS 416864: MOE gapmer, nucleobases 1275 to 1318 of SEQ ID NO: 1 (Table 8) (antisense GGCAGCGGACGGCATTGGTG; MOE gapmer, wing and gap sizes not given here)
- Inhibition of Factor 11 protein relative to the PBS control ([1]; day 8): 7%
- Inhibition of Factor 11 protein relative to the PBS control ([1]; day 15): 9%
- Inhibition of Factor 11 protein relative to the PBS control ([1]; day 22): 7%
- Inhibition of Factor 11 protein relative to the PBS control ([1]; day 29): 10%
- Inhibition of Factor 11 protein relative to the PBS control ([1]; day 36): 9%
- Inhibition of Factor 11 protein relative to the PBS control ([1]; day 43): 9%
- Inhibition of Factor 11 protein relative to the PBS control ([1]; day 50): 10%
- Inhibition of Factor 11 protein relative to the PBS control ([1]; day 57): 7%
- Inhibition of Factor 11 protein relative to the PBS control ([1]; day 64): 5%
- Inhibition of Factor 11 protein relative to the PBS control ([1]; day 71): 10%
- Inhibition of Factor 11 protein relative to the PBS control ([1]; day 78): 9%
- Inhibition of Factor 11 protein relative to the PBS control ([1]; day 85): 8%
- Inhibition of Factor 11 protein relative to the PBS control ([1]; day −5): 5%
- Inhibition of Factor 11 protein relative to the PBS control ([1]; day −14): 0%
- fibrinogen levels ([2]; day 8): 227 mg/dL
- fibrinogen levels ([2]; day 15): 210 mg/dL
- fibrinogen levels ([2]; day 22): 184 mg/dL
- fibrinogen levels ([2]; day 29): 205 mg/dL
- fibrinogen levels ([2]; day 36): 202 mg/dL
- fibrinogen levels ([2]; day 43): 198 mg/dL
- fibrinogen levels ([2]; day 50): 233 mg/dL
- fibrinogen levels ([2]; day 57): 200 mg/dL
- fibrinogen levels ([2]; day 64): 218 mg/dL
- fibrinogen levels ([2]; day 71): 245 mg/dL
- fibrinogen levels ([2]; day 78): 250 mg/dL
- fibrinogen levels ([2]; day 85): 240 mg/dL
- fibrinogen levels ([2]; day −5): 243 mg/dL
- fibrinogen levels ([2]; day −14): 300 mg/dL
- MCHC [3]: 31%
- ALT [4]: 471 IU/L
- AST [4]: 68 IU/L
- Albumin [4]: 4
- Bilirubin [4]: 3 mg/dL
